Experimental data taken from patent publication US8697709B2, “Fused ring heteroaryl kinase inhibitors” (The Regents of the University of California, priority 2008, dated 2014).
Where a chain is given by its changes, count along the chain named. Read-outs that look alike come from different tables or passages of the source.

Key:
Format in all cases: biochemical
[1] = biological target: c-Src (Gallus gallus, UniProt P00523); test: In vitro kinase assay (32P peptide phosphorylation), WT Src
[2] = biological target: T338G Src (Gallus gallus, UniProt P00523, T338G); test: In vitro kinase assay, T338G Src
Protocol: (§1) Kinase reactions were initiated by the addition of […] cold ATP supplemented with 5 mCi γ^32P ATP and allowed to proceed at room temperature (RT). At 10 minutes […] of the reactions were spotted onto phosphocellulose sheets (P81, Whatman) and subsequently soaked in wash buffer (1.0% (v/v) phosphoric acid). The sheets were washed five times in buffer, dried, and transferred radioactivity was measured by phosphorimaging using a TyphoonTM scanner (Molecular Dynamics). Radioactive counts were quantified using ImageQuantTM software, and titration data were fit to a sigmoidal dose response to derive IC50 values using the Prism® software package. Dose responses were based on a 12 point inhibitor titration, using 1⁄3 dilutions starting from […]. Experiments were completed 2-4 times to derive mean values.

[3] = biological target: T1, T315A Abl (Homo sapiens, UniProt P00519, T315A); test: In vitro kinase assay, T315A Abl; details: Table 1a
T1 sequence (P00519 242-493 T315A limits assumed): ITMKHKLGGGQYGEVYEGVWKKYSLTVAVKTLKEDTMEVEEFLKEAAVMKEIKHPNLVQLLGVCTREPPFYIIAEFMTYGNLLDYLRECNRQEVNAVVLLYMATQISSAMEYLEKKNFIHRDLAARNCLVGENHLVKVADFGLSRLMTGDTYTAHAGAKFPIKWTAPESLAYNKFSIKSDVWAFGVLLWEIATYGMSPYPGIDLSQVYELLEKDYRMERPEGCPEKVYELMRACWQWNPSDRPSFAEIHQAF
Protocol: as §1

[4] = biological target: T2, Abl (Homo sapiens, UniProt P00519); test: In vitro kinase assay (32P peptide phosphorylation), WT Abl; details: read-out: IC50 WT Abl
T2 sequence (P00519 242-493 limits assumed): T1 sequence (P00519 242-493 T315A limits assumed) with A74T

[5] = Table 1a, read-out: IC50 WT Src
[6] = unphosphorylated kinase domain, 100 mM ATP, read-out: IC50 for c-Src
[7] = Table 1b, read-out: IC50 WT Src

Compound	IC50 [1, 5]	IC50 ([2]; Table 1a)	IC50 [3]	IC50 [1, 7]	further results
Cn1nc(Cc2ccc(NC(=O)c3cccc(C(F)(F)F)c3)cc2)c2c(N)ncnc21 [AD7]	1000 to 5000 nM	> 5000 nM	1000 to 5000 nM	–	–
Cn1nc(Cc2ccc(NC(=O)Nc3cccc(C(F)(F)F)c3)cc2)c2c(N)ncnc21 [AD8]	1000 to 5000 nM	1000 to 5000 nM	1000 to 5000 nM	–	–
Cn1nc(Cc2cccc(NC(=O)c3cccc(C(F)(F)F)c3)c2)c2c(N)ncnc21 [AD15]	> 5000 nM	1000 to 5000 nM	< 1000 nM	–	–
Cn1nc(Cc2cccc(NC(=O)Nc3cccc(C(F)(F)F)c3)c2)c2c(N)ncnc21 [AD16, 1-(3-((4-amino-1-methyl-1H-pyrazolo[3,4-d]pyrimidin-3-yl)methyl)phenyl)-3-(3-(trifluoromethyl)phenyl)urea]	1000 to 5000 nM	< 1000 nM	1000 to 5000 nM	–	IC50 [1, 6]: ~6200 nM; IC50 ([4]; Table 1a): 1000 to 5000 nM
CC(C)(C)n1nc(Cc2cccc(NC(=O)c3cccc(C(F)(F)F)c3)c2)c2c(N)ncnc21 [AD25]	1000 to 5000 nM	< 1000 nM	< 1000 nM	–	–
CC(C)(C)n1nc(Cc2cccc(NC(=O)Nc3cccc(C(F)(F)F)c3)c2)c2c(N)ncnc21 [AD26, 1-(3-((1-tert-butyl-4-amino-1H-pyrazolo[3,4-d]pyrimidin-3-yl)methyl)phenyl)-3-(3-(trifluoromethyl)phenyl)urea]	< 1000 nM	< 1000 nM	< 1000 nM	–	IC50 [1, 6]: 480 nM; IC50 ([4]; Table 1a): < 1000 nM
CC(C)n1nc(Cc2cccc(NC(=O)c3cccc(C(F)(F)F)c3)c2)c2c(N)ncnc21 [AD35]	> 5000 nM	1000 to 5000 nM	< 1000 nM	–	–
CC(C)n1nc(Cc2cccc(NC(=O)Nc3cccc(C(F)(F)F)c3)c2)c2c(N)ncnc21 [AD36, 1-(3-((4-amino-1-isopropyl-1H-pyrazolo[3,4-d]pyrimidin-3-yl)methyl)phenyl)-3-(3-(trifluoromethyl)phenyl)urea]	1000 to 5000 nM	< 1000 nM	< 1000 nM	–	IC50 ([4]; Table 1a): 1000 to 5000 nM
CC(C)n1nc(-c2cccc(NC(=O)c3cccc(C(F)(F)F)c3)c2)c2c(N)ncnc21 [AD52]	–	–	–	1000 to 5000 nM	IC50 ([2]; Table 1b): < 1000 nM
CC(C)n1nc(-c2cccc(NC(=O)Nc3cccc(C(F)(F)F)c3)c2)c2c(N)ncnc21 [AD53]	–	–	–	1000 to 5000 nM	IC50 ([2]; Table 1b): < 1000 nM
CC(C)n1nc(-c2ccc(NC(=O)c3cccc(C(F)(F)F)c3)cc2)c2c(N)ncnc21 [AD56]	–	–	–	1000 to 5000 nM	IC50 ([2]; Table 1b): < 1000 nM
Nc1ncnc2c1c(-c1ccc(NC(=O)Nc3cccc(C(F)(F)F)c3)cc1)nn2CCCO [AD64, 1-(4-(4-amino-1-(3-hydroxypropyl)-1H-pyrazolo[3,4-d]pyrimidin-3-yl)phenyl)-3-(3-(trifluoromethyl)phenyl)urea]	–	–	–	< 1000 nM	IC50 ([4]; Table 1b): > 5000 nM
Nc1ncnc2c1c(-c1ccc(NC(=O)c3cccc(C(F)(F)F)c3)cc1)nn2CCCO [AD65, N-(4-(4-amino-1-(3-hydroxypropyl)-1H-pyrazolo[3,4-d]pyrimidin-3-yl)phenyl)-3-(trifluoromethyl)benzamide]	–	–	–	> 5000 nM	IC50 ([4]; Table 1b): > 5000 nM
Nc1ncnc2c1c(-c1ccc(NC(=O)Nc3cccc(C(F)(F)F)c3)cc1)nn2[C@H]1CCOC1 [AD66, 1-(4-(4-amino-1-((S)-tetrahydrofuran-3-yl)-1H-pyrazolo[3,4-d]pyrimidin-3-yl)phenyl)-3-(3-(trifluoromethyl)phenyl)urea]	–	–	–	< 1000 nM	IC50 ([4]; Table 1b): < 1000 nM
Nc1ncnc2c1c(-c1ccc(NC(=O)c3cccc(C(F)(F)F)c3)cc1)nn2[C@H]1CCOC1 [AD67, N-(4-(4-amino-1-((S)-tetrahydrofuran-3-yl)-1H-pyrazolo[3,4-d]pyrimidin-3-yl)phenyl)-3-(trifluoromethyl)benzamide]	–	–	–	< 1000 nM	IC50 ([4]; Table 1b): 1000 to 5000 nM
Nc1ncnc2c1c(-c1ccc(NC(=O)c3cccc(C(F)(F)F)c3)cc1)nn2[C@@H]1CCOC1 [AD68, N-(4-(4-amino-1-((R)-tetrahydrofuran-3-yl)-1H-pyrazolo[3,4-d]pyrimidin-3-yl)phenyl)-3-(trifluoromethyl)benzamide]	–	–	–	> 5000 nM	IC50 ([4]; Table 1b): > 5000 nM
Nc1ncnc2c1c(-c1ccc(NC(=O)Nc3cccc(C(F)(F)F)c3)cc1)nn2[C@@H]1CCOC1 [AD69, 1-(4-(4-amino-1-((R)-tetrahydrofuran-3-yl)-1H-pyrazolo[3,4-d]pyrimidin-3-yl)phenyl)-3-(3-(trifluoromethyl)phenyl)urea]	–	–	–	1000 to 5000 nM	IC50 ([4]; Table 1b): > 5000 nM
Nc1ncnc2c1c(-c1ccc(NC(=O)c3cccc(C(F)(F)F)c3)cc1)nn2[C@H]1CCNC1 [AD70, N-(4-(4-amino-1-((S)-pyrrolidin-3-yl)-1H-pyrazolo[3,4-d]pyrimidin-3-yl)phenyl)-3-(trifluoromethyl)benzamide]	–	–	–	> 5000 nM	IC50 ([4]; Table 1b): > 5000 nM
Nc1ncnc2c1c(-c1ccc(NC(=O)Nc3cccc(C(F)(F)F)c3)cc1)nn2[C@H]1CCN(C(=O)Nc2cccc(C(F)(F)F)c2)C1 [AD71c, (S)-3-(4-amino-3-(4-(3-(3-(trifluoromethyl)phenyl)ureido)phenyl)-1H-pyrazolo[3,4-d]pyrimidin-1-yl)-N-(3-(trifluoromethyl)phenyl)pyrrolidine-1-carboxamide]	1000 to 5000 nM	–	–	–	IC50 ([4]; Table 1a): > 5000 nM
Nc1ncnc2c1c(-c1ccc(NC(=O)c3cccc(C(F)(F)F)c3)cc1)nn2[C@@H]1CCNC1 [AD72, N-(4-(4-amino-1-((R)-pyrrolidin-3-yl)-1H-pyrazolo[3,4-d]pyrimidin-3-yl)phenyl)-3-(trifluoromethyl)benzamide]	–	–	–	> 5000 nM	IC50 ([4]; Table 1b): > 5000 nM
Nc1ncnc2c1c(-c1ccc(NC(=O)Nc3cccc(C(F)(F)F)c3)cc1)nn2[C@@H]1CCN(C(=O)Nc2cccc(C(F)(F)F)c2)C1 [AD73c, (R)-3-(4-amino-3-(4-(3-(3-(trifluoromethyl)phenyl)ureido)phenyl)-1H-pyrazolo[3,4-d]pyrimidin-1-yl)-N-(3-(trifluoromethyl)phenyl)pyrrolidine-1-carboxamide]	1000 to 5000 nM	–	–	–	IC50 ([4]; Table 1a): > 5000 nM
CC(C)(C)OC(=O)N1CC[C@H](n2nc(-c3ccc(NC(=O)Nc4cccc(C(F)(F)F)c4)cc3)c3c(N)ncnc32)C1 [AD78, (S)-tert-butyl 3-(4-amino-3-(4-(3-(3-(trifluoromethyl)phenyl)ureido)phenyl)-1H-pyrazolo[3,4-d]pyrimidin-1-yl)pyrrolidine-1-carboxylate]	< 1000 nM	–	–	–	IC50 ([4]; Table 1a): 1000 to 5000 nM
CC(C)(C)OC(=O)N1CC[C@@H](n2nc(-c3ccc(NC(=O)Nc4cccc(C(F)(F)F)c4)cc3)c3c(N)ncnc32)C1 [AD79, (R)-tert-butyl 3-(4-amino-3-(4-(3-(3-(trifluoromethyl)phenyl)ureido)phenyl)-1H-pyrazolo[3,4-d]pyrimidin-1-yl)pyrrolidine-1-carboxylate]	< 1000 nM	–	–	–	IC50 ([4]; Table 1a): 1000 to 5000 nM
Nc1ncnc2c1c(Cc1cccc(NC(=O)c3cccc(C(F)(F)F)c3)c1)nn2Cc1ccccc1 [BB5, N-(3-((4-amino-1-benzyl-1H-pyrazolo[3,4-d]pyrimidin-3-yl)methyl)phenyl)-3-(trifluoromethyl)benzamide]	1000 to 5000 nM	1000 to 5000 nM	1000 to 5000 nM	–	–
Nc1ncnc2c1c(Cc1cccc(NC(=O)Nc3cccc(C(F)(F)F)c3)c1)nn2Cc1ccccc1 [BB6, 1-(3-((4-amino-1-benzyl-1H-pyrazolo[3,4-d]pyrimidin-3-yl)methyl)phenyl)-3-(3-(trifluoromethyl)phenyl)urea]	1000 to 5000 nM	1000 to 5000 nM	< 1000 nM	–	–
Nc1ncnc2c1c(Cc1cccc(NC(=O)c3cccc(C(F)(F)F)c3)c1)nn2C1CCCC1 [BB9]	< 1000 nM	< 1000 nM	1000 to 5000 nM	–	–
Nc1ncnc2c1c(Cc1cccc(NC(=O)Nc3cccc(C(F)(F)F)c3)c1)nn2C1CCCC1 [BB10, 1-(3-((4-amino-1-cyclopentyl-1H-pyrazolo[3,4-d]pyrimidin-3-yl)methyl)phenyl)-3-(3-(trifluoromethyl)phenyl)urea]	< 1000 nM	< 1000 nM	< 1000 nM	–	selectivity towards c-Src over Abl ([1]; ratio of IC50 values c-Src vs Abl): approximately 5 fold; IC50 ([4]; Table 1a): 1000 to 5000 nM
Nc1ncnc2c1c(Cc1cccc(NC(=O)c3cccc(C(F)(F)F)c3)c1)nn2CC1CC1 [BB13]	> 5000 nM	< 1000 nM	< 1000 nM	–	–
Nc1ncnc2c1c(Cc1cccc(NC(=O)Nc3cccc(C(F)(F)F)c3)c1)nn2CC1CC1 [BB14]	< 1000 nM	< 1000 nM	< 1000 nM	–	–
